Data on two compounds can be found in patent publication US9796764B2, “Cyclotide genes in the fabaceae plant family” (The University of Queensland, priority 2011, dated 2017).

Where a SMILES comes first, the peptide text is derived from it.

Data set [1] relates to Helicoverpa armigera larvae. The data set is described as follows: Insecticidal feeding trial. It is filed as in vivo. Particulars: against the cotton budworm Helicoverpa armigera. On the procedure:
H. armigera larvae were obtained from the Queensland Department of Employment, Economic Development & Innovation. A feeding trial was conducted for 48 h with larvae maintained at 25° C. throughout the experiment. Larvae were given diets consisting of wheat germ, yeast, and soy flour.

Another data set deals with human red blood cells. The data set is described as follows: Haemolytic activity assay. Particulars: human red blood cells. It is filed as cell-based. The method, then: (§1) Serially diluted peptide solutions were incubated with washed human red blood cells. Following incubation, the supernatant was transferred before the UV absorbance was measured. The amount of haemolysis was calculated as the percentage of maximum lysis (1% Triton X-100 control) after adjusting for minimum lysis (PBS control). Synthetic melittin was used for comparison. The haemolytic dose necessary to lyse 50% of the RBCs (HD50) was calculated using the regression constant from the linear portion of the haemolytic titration curve (Graphpad Prism software).

A short description of data set [2]: Haemolytic activity assay. The class given is cell-based, human. Conditions: washed human red blood cells; % of maximum lysis (1% Triton X-100); read-out: haemolytic dose necessary to lyse 50% of the RBCs (HD50). On the procedure: as §1
Data set [3] can be described thus: Solubility of the synthetic peptide. The class given is physicochemical. On the procedure: Synthesis Cter M was synthesized using solid phase peptide synthesis and folded using conditions earlier established for other cyclotides (Daly, N. L., et al., (1999) Biochemistry 38, 10606-10614) including the use of 50% isopropanol in buffer. […] The NMR spectra of the native and synthetic Cter M peptides were recorded and found to be identical. The three-dimensional structure of Cter M was calculated with 398 distance restraints and 11 angle restraints using a simulated annealing protocol in CNS.

A short description of data set [4]: Binding to immobilized lipid vesicles (sensorgram). Conditions: PE membranes.
Data set [5] is described as follows: Heat denaturation, NMR spectra before and after heating. It is filed as physicochemical. Particulars: 95° C. for 5 minutes. From the text:
(B) Superposition of the 20 lowest energy structures of Cter M. Secondary structure of Cter M (C) and PA1b (E; PDB code 1P8B). The strands are shown as arrows and the helical turns as thickened ribbons. The disulfide bonds are shown in ball-and-stick format. The structure figures were generated using MOLMOL (Koradi, R., Billeter, M. & Wüthrich, K. (1996) J. Mol. Graph. 14, 29-32). Superimposition of Cter M and PA1b (D) showing cystine knot motif; disulfide bonds are indicated, and the aC are represented by spheres.
The structure of Cter M is extremely stable evidenced by its resistance to heat denaturation. […] An ensemble and ribbon representation of the three dimensional structure is shown in FIG. 14 along with a comparison with PA1b, the pea albumin whose precursor shares high sequence homology with the Cter gene.

Data set [6] has as its system L3-stage larvae of Haemonchus contortus. The data set can be described thus: Larval migration (motility) assay. The class given is cell-based. Particulars: against Haemonchus contortus. On the procedure: The effect of kB1 and Cter M on the motility of L3-stage larvae of Haemonchus contortus was assessed using a previously described method (Colgrave, et al., 2010, Antimicrob. Agents Ch. 54:2160-2166). The larvae were incubated in PBS containing a range of peptide concentrations for 24 h in the dark in a 96-well plate format. The motility of the worms was assessed wherein sinusoidal motion was indicative of health and loss of motility or the degree of motility was indicative of poor health. Nematodes that had been incubated with cyclotides were compared to control (no-peptide) wells.

Another data set deals with chymotrypsin. The data set can be described thus: Proteolysis by chymotrypsin (MS of leaf extract). The class given is in vitro ADME. Particulars: native Cter M in leaf extract. From the text: (§2) The reduced and alkylated peptide, m/z 3407.6 (E, G, I) underwent proteolytic cleavage by trypsin (F) and chymotrypsin (H, J). As there is only a single tryptic site, the trypsin digestion product is observed at m/z 3424.6, whereas there were three chymotryptic sites resulting in the formation of major products at m/z 1450.7, 1511.7 and 1931.8 corresponding to KNGLPTCGETCL (SEQ ID NO:129), VPDCSCSWPICM (SEQ ID NO:130) and KNGLPTCGETCLGTCY (SEQ ID NO:131) respectively.

The target of a further data set is T1, trypsin (Bos taurus, UniProt P00760).
T1 construct: purchased Sigma T1426
T1 sequence (P00760 24-246): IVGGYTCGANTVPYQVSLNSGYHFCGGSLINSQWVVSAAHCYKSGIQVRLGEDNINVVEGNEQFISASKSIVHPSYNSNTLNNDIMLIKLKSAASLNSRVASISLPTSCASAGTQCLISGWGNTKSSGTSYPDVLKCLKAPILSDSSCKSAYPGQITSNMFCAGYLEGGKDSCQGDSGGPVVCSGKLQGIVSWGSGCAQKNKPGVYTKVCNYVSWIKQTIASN
The data set is described as follows: Proteolysis by trypsin (MS of leaf extract). The class given is in vitro ADME. Particulars: native Cter M in leaf extract.
From the text: as §2

With `CC[C@H](C)[C@@H]1NC(=O)[C@@H]2CCCN2C(=O)[C@H](Cc2c[nH]c3ccccc23)NC(=O)[C@H](CO)NC(=O)[C@@H]2CSSC[C@@H]3NC(=O)[C@H]([C@@H](C)O)NC(=O)[C@H](CCC(=O)O)NC(=O)CNC(=O)[C@@H]4CSSC[C@H](NC(=O)[C@H](CC(=O)O)NC(=O)[C@@H]5CCCN5C(=O)[C@H](C(C)C)NC(=O)[C@H](Cc5ccc(O)cc5)NC(=O)[C@H](CSSC[C@H](NC1=O)C(=O)N[C@@H](CCSC)C(=O)N[C@@H](CCCCN)C(=O)N[C@@H](CC(N)=O)C(=O)NCC(=O)N[C@@H](CC(C)C)C(=O)N1CCC[C@H]1C(=O)N[C@@H]([C@@H](C)O)C(=O)N4)NC(=O)[C@H]([C@@H](C)O)NC(=O)CNC(=O)[C@H](CC(C)C)NC(=O)[C@H]([C@@H](C)O)NC3=O)C(=O)N[C@@H](CO)C(=O)N2` [Cter M] (HELM PEPTIDE1{C.G.E.T.C.T.L.G.T.C.Y.V.P.D.C.S.C.S.W.P.I.C.M.K.N.G.L.P.T}$PEPTIDE1,PEPTIDE1,1:R3-15:R3|PEPTIDE1,PEPTIDE1,5:R3-17:R3|PEPTIDE1,PEPTIDE1,10:R3-22:R3|PEPTIDE1,PEPTIDE1,1:R1-29:R2$$$V2.0), in data set [1], the insecticidal activity result is “insecticidal activity”. The “haemolytic activity” value in the data set on human red blood cells is reported as “mildly haemolytic”. Also, in data set [2], the HC50 is above 100 µM. In addition, in [3] (addition of acetonitrile), the “solubility on addition of acetonitrile” value is “greatly improved the solubility”. Besides, the solubility in water result in [3] (water) is given as “relatively low solubility in water”. For the same compound, in [4], the membrane binding result is “binds to PE membranes”. Further, the “resistance to heat denaturation (change in NMR spectra)” value in data set [5] is reported as “no changes were observed in the spectra”. Besides, the anthelmintic activity result in [6] is listed as “anthelmintic activity”. In the data set with chymotrypsin, the hydrolysis by chymotrypsin result is reported as “no observed hydrolysis”. Further, the hydrolysis by trypsin entry on trypsin was “no observed hydrolysis”.

`CC(C)C[C@@H]1NC(=O)CNC(=O)[C@H](CC(N)=O)NC(=O)[C@H](CCCNC(=N)N)NC(=O)[C@H]([C@@H](C)O)NC(=O)[C@@H]2CSSC[C@@H]3NC(=O)[C@H]([C@@H](C)O)NC(=O)CNC(=O)CNC(=O)[C@H](C(C)C)NC(=O)[C@@H]4CSSC[C@H](NC(=O)[C@H]([C@@H](C)O)NC(=O)[C@H](CSSC[C@H](NC(=O)[C@H](C(C)C)NC(=O)[C@@H]5CCCN5C1=O)C(=O)NCC(=O)N[C@@H](CCC(=O)O)C(=O)N[C@@H]([C@@H](C)O)C(=O)N4)NC(=O)CNC(=O)[C@@H]1CCCN1C(=O)[C@H]([C@@H](C)O)NC(=O)[C@H](CC(N)=O)NC3=O)C(=O)N[C@@H](CO)C(=O)N[C@@H](Cc1c[nH]c3ccccc13)C(=O)N1CCC[C@H]1C(=O)N[C@@H](C(C)C)C(=O)N2` [kB1, kalata B1, reference compound]: in data set [2], the HC50 is 7.8 µM.
